Measurements: patent publication US11759435B2, “Dihydrochalcone derivatives influencing inflammatory states” (SYMRISE AG, priority 2016, dated 2023)

Tested on: IL-8 release by HGF-1 cells
Test: Anti-inflammatory action in HGF-1 cells: IL-8 release after PG-LPS stimulation (Example TS1)
Assay type: cell-based
Conditions: Homo sapiens, co-incubation with 10 μg/ml PG-LPS, 6 h, % IL-8 release vs PG-LPS control, read-out: IL-8 T/C [%]
Description: Anti-inflammatory action in human gingival fibroblastic cells (HGF-1)
DMEM containing 10% FBS, 1% penicillin/streptomycin and 4% glutamine was used as the medium. For determination of the anti-inflammatory action the cells were incubated with 10 μg/ml PG-LPS for 6 hrs. […] In each case 4 samples with two technical replicates were measured. In addition to this control the cells were co-incubated with
(a) 10 μg/ml PG-LPS and also with
After incubation the cell culture medium was transferred into an Eppendorf reaction vessel and at 4° C. for 10 min subjected to centrifugation (1000×g) in order to separate the cell debris. The supernatant was stored at −80° C. until analysis.

SMILES: O=C(CCc1ccc(O)cc1)c1c(O)cc(O)cc1O [Compound 4]
- activity at 1 µM (HGF1, 1 μM test compound): 106%
- activity at 100 µM (HGF1, 100 μM test compound): 50%
